The values below come from patent US4619823A, “Radioactive iodine labeled metaraminol and diagnostic agent containing platelets labeled therewith” (Nihon Medi-Physics Co., Ltd., priority 1983, dated 1986).

The structures appear in SMILES notation.

One data set deals with platelets. The following applies: 100 µM.
The conditions of data set [1]: background statement; cited from earlier work.

Protocol for platelets: Change of the take up rate of ^125 I-labled metaraminol into platelets in coexistence with of a medical compound:
The take up rate of ^125 I-labeled metaraminol into platelets in the coexistence with a medical compound was examined. Calculation was make taking the take up rate in case of ^125 I-labeled metaraminol alone as 100%. ^125 I-labeled metaraminol was added to platelets in a molar concentration of 1×10^-7.

Compound `CNCC(O)c1ccc(O)c(O)c1` (stereo not shown) [Adrenaline] returned an activity with platelets of 61.6 ± 8.3%.
For the compound `CN(C)CCCN1c2ccccc2CCc2ccccc21` [Imipramine], the activity in the data set on platelets came to 45.8 ± 6.3%.
Still for that read-out and setting: for `Cc1ccc(N(CC2=NCCN2)c2cccc(O)c2)cc1` [Phentolamine] the value was 43.1 ± 3.4%; for `CC(C)NCC(O)COc1cccc2ccccc12` (stereo not shown) [Propranolol], 18 ± 3.1%; for `NCCc1c[nH]c2ccc(O)cc12` [Serotonin], 17.1 ± 10.3%.
For the compound `CC(N)C(O)c1cccc(O)c1` (stereo not drawn) [metaraminol, alpha-(1-aminoethyl)-3-hydroxybenzenemethanol], the toxicity result in data set [1] is “no practical toxicity problem”.
For the compound `Oc1cccc2cccnc12` [oxine], in data set [1], the toxicity result is on record as “relatively high toxicity”.
